Measured values reported in patent publication US4108991A, “N-aminosulfenyl derivatives of aldicarb” (priority 1976, dated 1978).
Values joined by “and” are separate entries in the source; they are usually repeats but may differ in a detail not shown here. Identical values can stand only once.

Experiments:
Milkweed bug [1] = experiment: Initial contact activity, spray, milkweed bug; assay type: in vivo, Oncopeltus fasciatus [Dallas]
Protocol: (§1) Initial Contact Activity: One half gram of test compound was dissolved in 40 ml of acetone and this solution was dispersed in 360 ml of water containing one drop of isooctylphenyl polyethoxyethanol. Aliquots of this solution, which corresponds to 1250 ppm of active ingredient, were diluted with an appropriate amount of water to provide solutions containing various concentrations of active ingredient. Test organisms and techniques were as follows: The activity against the Mexican bean beetle (Epilachna varivestis Muls.) and the southern armyworm (Spodoptera eridania [Cram.]) was evaluated by dipping the leaves of pinto bean plants into the test solution and infesting the leaves with the appropriate immature-form insects when the foiliage had dried; the activity against the pea aphid (Acyrthosiphon pisum [Harris]) was evaluated on broad bean plants whose leaves were dipped before infestation with adult aphids; the activity against two-sotted spider mites (Tetranychus urticae Koch) was evaluated on pinto bean plants whose leaves were dipped after infestation with adult mites; the activity against the milkweed bug (Oncopeltus fasciatus [Dallas]), and the plum curculio (Conotrachelus nenuphar [Herbst]) was evaluated by spraying the test solutions into glass dishes or jars containing the adult insects; the activity against the confused flour beetle (Tribolium confusum duVal) was evaluated by introducing the insects into glass dishes which had been previously sprayed with test solution and allowed to dry. All organisms in the test were maintained in a holding room at 80° F and 50% relative humidity for an exposure period of 48 hours. At the end of this time, the dead and living insects or mites were counted, and the percent kill was calculated.

Granary Weevil [2] = experiment: Initial contact activity, granary weevil; assay type: in vivo
Southern armyworm [3] = experiment: Initial contact activity, leaf dip, southern armyworm; assay type: in vivo, Spodoptera eridania [Cram.]; settings: for Percent Kill: initial, AW, 48 hours
Protocol: as §1

Milkweed bug [4] = experiment: Residual (7-day) contact activity, milkweed bug; assay type: in vivo, Oncopeltus fasciatus [Dallas]; settings: for Percent Kill: residual 7-day, MWB
Protocol: as §1
(§2) Residual Contact Activity: The residual contact activity of the compounds was determined on the same organisms using the techniques described above, except that in each case the treated surface was allowed to dry and was exposed to normal light and air for seven days before introduction of the mites or insects.

Mexican bean beetle [5] = experiment: Residual (7-day) contact activity, Mexican bean beetle; assay type: in vivo, Epilachna varivestis Muls.; settings: Epilachna varivestis, 168 h
Protocol: as §1, §2

Pea aphid [6] = experiment: Initial contact activity, leaf dip, pea aphid; assay type: in vivo, Acyrthosiphon pisum [Harris]; settings: for Percent Kill: initial, PA, 48 hours
Protocol: as §1

Pea aphid [7] = experiment: Residual (7-day) contact activity, pea aphid; assay type: in vivo, Acyrthosiphon pisum [Harris]; settings: Acyrthosiphon pisum, 168 h
Protocol: as §1, §2

[8] = Toxicity to rats, acute oral median lethal dose (LD50), Method A; assay type: in vivo, young female albino rats, derived from Sprague-Dawley stock; settings: in vivo, rat, corn oil, 14 days observation
Protocol: Method A: Young female albino rats, derived from Sprague-Dawley stock and weighing between 175 and 200 g, were used. An initial screening was conducted to determine the general level of toxicity of the test compounds and to establish the dosing range to be used with each compound. The test materials were suspended in corn oil and administered directly into the stomachs of the rats, using a hypodermic syringe equipped with a ball-tipped intubating needle. A range of dosing levels was employed utilizing two rats at each level. […] This method was used to determine the toxicity to rats of the compounds of Examples I, II, and III and aldicarb.

Mexican bean beetle [9] = experiment: Systemic activity, soil-watering, Mexican bean beetle; assay type: in vivo, Epilachna varivestis Muls.; settings: Epilachna varivestis, 48 h
Protocol: as §1
Systemic Activity: Systemic activity was measured using a soil-watering technique. Test organisms were Mexican bean beetle, southern armyworm, pea aphid, and mites on plants as described above in this Example. With appropriate precautions to avoid contact of the solution with the test plant surfaces, 25 ml of a test solution, prepared as above to contain the desired amount of active ingredient, were poured evenly over the surface of the soil in which the plant was growing. The treated plants were maintained under normal growing conditions for three days to permit translocation of the toxicant, after which the leaves were infested. Two days after infestation, counts of living and dead insects were made.

Plum curculio = experiment: Initial contact activity, spray, plum curculio; assay type: in vivo, Conotrachelus nenuphar [Herbst]; settings: Conotrachelus nenuphar, 48 h, read-out: Percent Kill
Protocol: as §1

Southern armyworm [10] = experiment: Residual (7-day) contact activity, southern armyworm; assay type: in vivo, Spodoptera eridania [Cram.]; settings: Spodoptera eridania, 168 h
Protocol: as §1, §2

Confused flour beetle [11] = experiment: Initial contact activity, sprayed dishes, confused flour beetle; assay type: in vivo, Tribolium confusum duVal; settings: Tribolium confusum, 48 h, read-out: Percent Kill
Protocol: as §1

Granary Weevil [12] = experiment: Residual (7-day) contact activity, granary weevil; assay type: in vivo; settings: Sitophilus granarius, 168 h, read-out: Percent Kill
Confused flour beetle [13] = experiment: Residual (7-day) contact activity, confused flour beetle; assay type: in vivo, Tribolium confusum duVal; settings: Tribolium confusum, 168 h, read-out: Percent Kill
Protocol: as §1, §2

CNC(=O)ON=CC(C)(C)SC [Aldicarb, 2-methyl-2-(methylthio)propanal O-(methylcarbamoyl)oxime]
mortality at 5 ppm (Milkweed bug [1]; Oncopeltus fasciatus, 48 h, read-out: Percent Kill, initial, MWB, 5 PPM, 48 hours): 30%
mortality at 10 ppm (Milkweed bug [1]; Oncopeltus fasciatus, 48 h, read-out: Percent Kill, initial, MWB, 10 PPM, 48 hours): 55%
mortality at 20 ppm (Milkweed bug [1]; Oncopeltus fasciatus, 48 h, read-out: Percent Kill, initial, MWB, 20 PPM, 48 hours): 95%
mortality at 39 ppm (Milkweed bug [1]; Oncopeltus fasciatus, 48 h, read-out: Percent Kill, initial, MWB, 39 PPM, 48 hours): 100%
mortality at 156 ppm (Milkweed bug [1]; Oncopeltus fasciatus, 48 h, read-out: Percent Kill, initial, MWB, 156 PPM, 48 hours): 100%
mortality at 1250 ppm (Milkweed bug [1]; Oncopeltus fasciatus, 48 h, read-out: Percent Kill, initial, MWB, 1250 PPM, 48 hours): 100%
Percent Kill (Milkweed bug [1]; initial, MWB, 10 PPM, 48 hours, 2880 min): 70%
mortality at 20 ppm (Granary Weevil [2]; Sitophilus granarius, 48 h, read-out: Percent Kill, initial, GW, 20 PPM, 48 hours): 20%
mortality at 39 ppm (Granary Weevil [2]; Sitophilus granarius, 48 h, read-out: Percent Kill, initial, GW, 39 PPM, 48 hours): 40%
mortality at 156 ppm (Granary Weevil [2]; Sitophilus granarius, 48 h, read-out: Percent Kill, initial, GW, 156 PPM, 48 hours): 100%
mortality at 312 ppm (Granary Weevil [2]; Sitophilus granarius, 48 h, read-out: Percent Kill, initial, GW, 312 PPM, 48 hours): 100%
mortality at 1250 ppm (Granary Weevil [2]; Sitophilus granarius, 48 h, read-out: Percent Kill, initial, GW, 1250 PPM, 48 hours): 100%
Percent Kill (Granary Weevil [2]; initial, GW, 156 PPM, 48 hours, 2880 min): 97.5%
mortality at 156 ppm (Southern armyworm [3]; Spodoptera eridania, foliar, 48 h, read-out: Percent Kill, initial, AW, 156 PPM, 48 hours): 23%
mortality at 312 ppm (Southern armyworm [3]; Spodoptera eridania, foliar, 48 h, read-out: Percent Kill, initial, AW, 312 PPM, 48 hours): 0%
mortality at 625 ppm (Southern armyworm [3]; Spodoptera eridania, foliar, 48 h, read-out: Percent Kill, initial, AW, 625 PPM, 48 hours): 12%
Percent Kill (Southern armyworm [3]; 312 PPM): 0%
Percent Kill (Southern armyworm [3]; 625 PPM, 2880 min): 15%
mortality at 156 ppm (Milkweed bug [4]; Oncopeltus fasciatus, 168 h, read-out: Percent Kill, residual 7-day, MWB, 156 PPM): 15%
mortality at 312 ppm (Milkweed bug [4]; Oncopeltus fasciatus, 168 h, read-out: Percent Kill, residual 7-day, MWB, 312 PPM): 80%
mortality at 625 ppm (Milkweed bug [4]; Oncopeltus fasciatus, 168 h, read-out: Percent Kill, residual 7-day, MWB, 625 PPM): 100%
mortality at 1250 ppm (Milkweed bug [4]; Oncopeltus fasciatus, 168 h, read-out: Percent Kill, residual 7-day, MWB, 1250 PPM): 100%
Percent Kill (Milkweed bug [4]; 312 PPM): 70%
Percent Kill (Milkweed bug [4]; 1250 PPM): 100%
mortality at 625 ppm (Mexican bean beetle [5]; read-out: Percent Kill, residual 7-day, BB, 625 PPM): 47%
mortality at 1250 ppm (Mexican bean beetle [5]; read-out: Percent Kill, residual 7-day, BB, 1250 PPM): 100%
mortality at 10 ppm (Pea aphid [6]; Acyrthosiphon pisum, foliar, 48 h, read-out: Percent Kill, initial, PA, 10 PPM, 48 hours): 33%
mortality at 20 ppm (Pea aphid [6]; Acyrthosiphon pisum, foliar, 48 h, read-out: Percent Kill, initial, PA, 20 PPM, 48 hours): 35%
mortality at 156 ppm (Pea aphid [6]; Acyrthosiphon pisum, foliar, 48 h, read-out: Percent Kill, initial, PA, 156 PPM, 48 hours): 100%
mortality at 1250 ppm (Pea aphid [6]; Acyrthosiphon pisum, foliar, 48 h, read-out: Percent Kill, initial, PA, 1250 PPM, 48 hours): 100%
Percent Kill (Pea aphid [6]; 39 PPM, 2880 min): 60% and 85%
Percent Kill (Pea aphid [6]; 156 PPM): 100%
mortality at 156 ppm (Pea aphid [7]; read-out: Percent Kill, residual 7-day, PA, 156 PPM): 0%
mortality at 625 ppm (Pea aphid [7]; read-out: Percent Kill, residual 7-day, PA, 625 PPM): 10%
mortality at 1250 ppm (Pea aphid [7]; read-out: Percent Kill, residual 7-day, PA, 1250 PPM): 100%
LD50 at 336 h [8]: 0.5 mg/kg
mortality at 39 ppm (Mexican bean beetle [9]; read-out: Percent Kill, systemic, BB, 39 PPM): 100%
mortality at 156 ppm (Mexican bean beetle [9]; read-out: Percent Kill, systemic, BB, 156 PPM): 100%
mortality at 10 ppm (Plum curculio): 10%
mortality at 39 ppm (Plum curculio): 35%
mortality at 156 ppm (Plum curculio): 100%
mortality at 1250 ppm (Plum curculio): 100%
mortality at 312 ppm (Southern armyworm [10]; read-out: Percent Kill, residual 7-day, AW, 312 PPM): 0%
mortality at 625 ppm (Southern armyworm [10]; read-out: Percent Kill, residual 7-day, AW, 625 PPM): 0%
mortality at 156 ppm (Confused flour beetle [11]): 5%
mortality at 312 ppm (Confused flour beetle [11]): 10%
mortality at 1250 ppm (Confused flour beetle [11]): 90%
mortality at 312 ppm (Granary Weevil [12]): 3.3%
mortality at 1250 ppm (Granary Weevil [12]): 0%
mortality at 312 ppm (Confused flour beetle [13]): 0%
mortality at 1250 ppm (Confused flour beetle [13]): 0%
